Data from patent publication US7470715B2, “Estrogen modulators” (Pfizer Inc., priority 2005, dated 2008).

Assays:
[1] = target: T1, ligand binding domain of the estrogen receptor alpha chain (ERαLBD) (Homo sapiens, UniProt P03372); test: ER agonist cell assay (ERα), Huh-7 co-transfection, luciferase; assay type: cell-based; conditions: for EC50: Huh-7 cells co-transfected with pG5luc and ERαLBD, overnight incubation, luciferase; for ERα % of Max E2 Response: percent of the maximum estradiol fold change, Huh-7, pG5luc and ERαLBD
T1 construct: expressed in transfected cells; host or cells: Huh-7 human hepatoma cells, transient transfection with FuGENE 6
T1 sequence (P03372 311-547 limits assumed): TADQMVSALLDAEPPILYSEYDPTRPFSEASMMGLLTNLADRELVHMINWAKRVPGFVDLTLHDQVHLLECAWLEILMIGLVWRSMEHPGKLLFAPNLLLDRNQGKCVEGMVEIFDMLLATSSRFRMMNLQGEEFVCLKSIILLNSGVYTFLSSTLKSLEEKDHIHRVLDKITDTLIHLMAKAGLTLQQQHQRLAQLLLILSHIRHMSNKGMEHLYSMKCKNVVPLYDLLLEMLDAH
Description: (§1) The compounds ability to mimic the effects of estrogen on the estrogen receptor were determined in a whole cell assay as described immediately below.
(§2) Experimental Procedure for ER Agonist Cell Assay
(§3) • Cell line and plasmids: The human hepatoma cell line Huh-7 was used for co-transfections. Cells were maintained in culture medium and split when they reached 80-90% confluency. Three plasmids were routinely used in the assay. pG5luc contained the firefly luciferase gene and was obtained from Promega. […] Cell Culture Media and Reagents:
(§4) Culture medium: DMEM (phenol red free), 10% charcoal treated HyClone serum, 1% L-glutamine, and 1% penicillin/streptomycin
(§5) Transfection medium: DMEM (phenol red free) and 10% charcoal treated HyClone serum
(§6) Luciferase reagents: Dual-Glo Luciferase Kit (Promega cat #E2980) was used for determination of luciferase activity.
(§7) Transient transfections were preformed using the lipophilic reagent FuGENE 6 (Roche). Cells were split and seeded at 7.2×10^6/150 cm^2 flask in 20 mL of transfection medium. 5-6 hrs later cells were co-transfected with either pG5luc and ERαLBD or pG5luc and ERβLBD(pm418). Transfected cells grew overnight and were then used the next day.
(§8) Cells transfected 24 hrs earlier were harvested, counted, and seeded in wells containing compound at a density of 1×10^4 cells/well. […] Cells were incubated overnight at 37° C. and 5% CO2 in the presence of compound. The following day medium was aspirated from the wells and 100 ul of Dual-Glo™ Luciferase Reagent were added to each well. Plates were incubated at room temperature for 20 minutes and firefly luminescence was measured on a luminometer. Next, 50 ul of Dual-Gbo™ Stop & Glo® Reagent were added to each well and after 20 minutes at room temperature the Renilla luminescence was measured on a luminometer. Values from each well were normalized by dividing the firefly luminescence by the Renilla luminescence. Estradiol was used as the standard and run in each assay. The fold induction over background for each compound was compared to the maximum fold induction for estradiol in each assay. […] Those compounds that were not tested, or the data was unavailable are marked as NT.

[2] = target: ligand binding domain of the estrogen receptor beta chain (ERβLBD) that contained a point mutation at amino acid residue 418 (pm418) (Homo sapiens, UniProt Q92731); test: ER agonist cell assay (ERβ), Huh-7 co-transfection, luciferase; assay type: cell-based; conditions: for EC50: Huh-7 cells co-transfected with pG5luc and ERβLBD(pm418), overnight incubation, luciferase; for ERβ % of Max E2 Response: percent of the maximum estradiol fold change, Huh-7, pG5luc and ERβLBD(pm418)
Description: as §1, §2, §3, §4, §5, §6, §7, §8

EC50 [1]	ERα % of Max E2 Response [1]	EC50 [2]	ERβ % of Max E2 Response [2]	Structure (SMILES)
38.8 nM	60.4%	108 nM	65.8%	CC(=O)OCC1(c2onc(-c3ccc(O)cc3)c2-c2ccccc2)CC1 [Example 54]
152 nM	24.4%	> 10000 nM	>0.539%	Oc1ccc(-c2nnc(C3(c4onc(-c5ccc(O)cc5)c4-c4ccccc4)CC3)o2)cc1 [Example 124, 4-(5-{1-[5-(4-hydroxyphenyl)-1,3,4-oxadiazol-2-yl]cyclopropyl}-4-phenylisoxazol-3-yl)phenol]
11.1 nM	42.1%	30.6 nM	3%	Cc1noc(C)c1C(=O)OCC1(c2onc(-c3ccc(O)cc3)c2-c2ccccc2)CC1 [Example 56]
469 nM	22.3%	> 10000 nM	>3.74%	CCOc1ccc(-c2nnc(C3(c4onc(-c5ccc(O)cc5)c4-c4ccccc4)CC3)o2)cc1 [Example 119, 4-(5-{1-[5-(4-ethoxyphenyl)-1,3,4-oxadiazol-2-yl]cyclopropyl}-4-phenylisoxazol-3-yl)phenol]
107 nM	39.5%	139 nM	1.12%	Oc1ccc(-c2noc(C3(CSc4ccccc4)CC3)c2-c2ccccc2)cc1 [Example 40, 4-[4-Phenyl-5-(1-phenylsulfanylmethyl-cyclopropyl)-isoxazol-3-yl]-phenol]
354 nM	26.2%	–	0.577%	Cc1ncccc1OCC1(c2onc(-c3ccc(O)cc3)c2-c2ccccc2)CC1 [Example 12, 4-{5-[1-(2-Methyl-pyridin-3-yloxymethyl)-cyclopropyl]-4-phenyl-isoxazol-3-yl}-phenol]

The remaining lines, values behind:

Structure (SMILES)	EC50 [1]	ERα % of Max E2 Response [1]	EC50 [2]	ERβ % of Max E2 Response [2]
O=C(OCC1CCC1)C1(c2onc(-c3ccc(O)cc3)c2-c2ccccc2)CC1 [Example 95, 1-[3-(4-Hydroxy-phenyl)-4-phenyl-isoxazol-5-yl]-cyclopropanecarboxylic acid cyclobutylmethyl ester]	13.6 nM	21.5%	> 10000 nM	>0.728%
CC(=O)C1(c2onc(-c3ccc(O)cc3)c2-c2ccccc2)CC1 [Example 101, 1-{1-[3-(4-Hydroxy-phenyl)-4-phenyl-isoxazol-5-yl]-cyclopropyl}-ethanone]	122 nM	58.3%	–	13.6%
CSCC1(c2onc(-c3ccc(O)cc3)c2-c2ccccc2)CC1 [Example 38, 4-[5-(1-Methylsulfanylmethyl-cyclopropyl)-4-phenyl-isoxazol-3-yl]-phenol]	1130 nM	11.4%	749 nM	6.6%
CC(C)(C)COC(=O)C1(c2onc(-c3ccc(O)cc3)c2-c2ccccc2)CC1 [Example 93, 1-[3-(4-Hydroxy-phenyl)-4-phenyl-isoxazol-5-yl]-cyclopropanecarboxylic acid 2,2-dimethyl-propyl ester]	33.8 nM	20.4%	> 10000 nM	>0.813%
N#CCC1(c2onc(-c3ccc(O)cc3)c2-c2ccccc2)CC1 [Example 42, {1-[3-(4-Hydroxy-phenyl)-4-phenyl-isoxazol-5-yl]-cyclopropyl}-acetonitrile]	37.7 nM	51.7%	198 nM	6.17%
Oc1ccc(-c2noc(C3(CN4CCOCC4)CC3)c2-c2ccccc2)cc1 [Example 31, 4-[5-(1-Morpholin-4-ylmethyl-cyclopropyl)-4-phenyl-isoxazol-3-yl]-phenol]	26.9 nM	30%	151 nM	1.35%
